Measured values reported in patent US20240368181A1, “QUINOXALINE DERIVATIVES AND USES THEREOF” (Black Diamond Therapeutics, Inc., priority 2021, published 2024).

Legend:
Type in all cases: cell-based
[1] = tested on: UM-UC-14 (FGFR3-S249C) cells; assay: Cell proliferation assay (CellTiterGlo), UM-UC-14 cells; conditions: UMUC14, 72 h, inhibition of cell growth, intracellular ATP (CellTiterGlo)
Excerpt: (§1) The following is a non-limiting example that describes a cell proliferation assay used to determine the biological activity of the compounds of the present disclosure. More specifically, the assay as used to assess the ability of the compounds to inhibit cell proliferation.
(§2) Briefly, SNU-16 (FGFR2-amplification) cells, were resuspended at 18,520c/ml mL in RPMI containing 10% Heat Inactivated FBS, 1% L-glutamine and dispensed in duplicate (463c/well) into 384 well plates. UM-UC-14 (FGFR3-S249C) cells were resuspended at 40.000c/ml mL in RPMI containing 10% Heat Inactivated FBS, 1% L-glutamine and dispensed in duplicate (1000c/well) into 384 well plates. DMS-114 (FGFR1 overexpression) cells and were resuspended at 40,000c/ml mL in RPMI containing 10% Heat Inactivated FBS, 1% L-glutamine and dispensed in duplicate (1000c/well) into 384 well plates. RT-112 (FGFR3-Tacc3 fusion) cells were resuspended at 40,000c/ml mL in RPMI containing 10% Heat Inactivated FBS, 1% L-glutamine and dispensed in duplicate (1000c/well) into 384 well plates. To determine the effect of the compounds of the present disclosure on cell proliferation, SNU-16, UM-UC-14, DMS-114 and RT112 cells were incubated for 72 hours in the presence of vehicle control (DMSO) or a compound of the present disclosure at varying concentrations. Inhibition of cell growth was subsequently determined by luminescent quantification (Envision by Perkin Elmer) of intracellular ATP content using CellTiterGlo (Promega), according to the protocol provided by the manufacturer. To determine the IC50 values, the vehicle-treated cells were normalized as viable cells and analyzed using the CDD Vault software (Collaborative Drug Discovery, Burlingame, CA).

[2] = tested on: DMS-114 (FGFR1 overexpression) cells; assay: Cell proliferation assay (CellTiterGlo), DMS-114 cells; conditions: Homo sapiens, 72 hours, inhibition of cell growth, intracellular ATP (CellTiterGlo)
Excerpt: as §1, §2

[3] = tested on: RT-112 (FGFR3-Tacc3 fusion) cells; assay: Cell proliferation assay (CellTiterGlo), RT-112 cells; conditions: Homo sapiens, RT-112, 72 h, RT112 cells, inhibition of cell growth, intracellular ATP (CellTiterGlo)
Excerpt: as §1, §2

[4] = tested on: SNU-16 (FGFR2-amplification) cells; assay: Cell proliferation assay (CellTiterGlo), SNU-16 cells; conditions: Homo sapiens, SNU-16, 72 h, inhibition of cell growth, intracellular ATP (CellTiterGlo)
Excerpt: as §1, §2

Row | Structure (SMILES) | IC50 [1] [nM] | IC50 [2] [nM] | IC50 [3] [nM] | IC50 [4] [nM]
1 | COc1cc(Oc2ccc3ncc(-c4cnn(CC5CCOCC5)c4)nc3c2)cc2[nH]c(C)nc12 [Compound 61] | ≥ 400 | ≥ 400 | ≥ 400 | ≥ 400
2 | Cc1nc2cc(Oc3ccc4ncc(-c5cnn(CC6CCOCC6)c5)nc4c3)ccc2[nH]1 [Compound 62] | 100 to 400 | ≥ 400 | 20 to 100 | 20 to 100
3 | Cc1cn2ccc(Oc3ccc4ncc(-c5cnn(CC6CCN(C)CC6)c5)nc4c3Cl)cc2n1 [Compound 63] | ≥ 400 | ≥ 400 | 100 to 400 | 100 to 400
4 | Cc1nc2ccc(Oc3ccc4ncc(-c5cc(CC6CCN(C)CC6)no5)nc4c3Cl)cc2[nH]1 [Compound 64] | 100 to 400 | ≥ 400 | 100 to 400 | 100 to 400
5 | Cc1ccc2ccc(Oc3ccc4ncc(-c5cnn(CC6CCN(C)CC6)c5)nc4c3Cl)cc2n1 [Compound 65] | ≥ 400 | ≥ 400 | ≥ 400 | ≥ 400
6 | Cc1nc2ccc(Oc3ccc4ncc(-c5cnn(C6CCC(F)(F)CC6)c5)nc4c3Cl)cc2[nH]1 [Compound 66] | 100 to 400 | ≥ 400 | 100 to 400 | 100 to 400
7 | Cc1nc2ccc(Oc3ccc4ncc(-c5cnn(CC6(O)CC6)c5)nc4c3Cl)cc2[nH]1 [Compound 67] | 20 to 100 | ≥ 400 | 20 to 100 | 20 to 100
8 | Cc1nc2ccc(Oc3ccc4ncc(-c5cnn(CC6CC(F)(F)C6)c5)nc4c3Cl)c(F)c2[nH]1 [Compound 68] | 20 to 100 | ≥ 400 | 20 to 100 | 20 to 100
